Results taken from ChEMBL document CHEMBL5505979, “Novel aminothiazoximone-corbelled ethoxycarbonylpyrimidones with antibiofilm activity to conquer Gram-negative bacteria through potential multitargeting effects” (Eur J Med Chem, 2024).
In brackets after ≈: the same amount, converted by molar mass. Activity calls are given as the source filed them. No cut-off for these calls is given here.

Key:
[1] = tested on: Staphylococcus aureus; experiment: Anti-bacterial activity against Staphylococcus aureus CMCC (B) 26003 assessed as inhibition of bacterial growth; format: functional
[2] = tested on: Acinetobacter baumannii; experiment: Reduction of biofilm virulent factors in Acinetobacter baumannii assessed as decrease in extracellular polymeric substances (EPS) by measuring optical density at 490 nm at 2 times of MIC concentration by congo red binding assay (reference value: 0.188 to 0.192); format: functional
[3] = tested on: Acinetobacter baumannii; experiment: Anti-bacterial activity against Acinetobacter baumannii assessed as growth inhibition by measuring optical density measured at 1 time of MIC in presence of 1/2 times of MIC of norfloxacin by Checkerboard assay (reference value: 0.157); format: functional
[4] = tested on: Candida parapsilosis; experiment: Anti-fungal activity against Candida parapsilosis assessed as inhibition of fungal growth; format: functional; conditions: Lodderomyces parapsilosis; read-out: MIC
[5] = tested on: Escherichia coli; experiment: Reduction in metabolic activity of Escherichia coli ATCC 25922 at MIC concentration relative to control; format: functional; parameters: scale not given: the % may be the effect or the level left
[6] = tested on: Escherichia coli; experiment: Anti-bacterial activity against Escherichia coli ATCC 25922 assessed at fractional inhibitory concentration measured upto 9 hrs in presence of norfloxacin; format: functional
[7] = tested on: Acinetobacter baumannii; experiment: Anti-bacterial activity against Acinetobacter baumannii assessed as growth inhibition by measuring optical density measured at 4 time of MIC in presence of 1/2 times of MIC of norfloxacin by Checkerboard assay (reference value: 0.152); format: functional
[8] = tested on: Escherichia coli; experiment: Anti-bacterial activity against Escherichia coli ATCC 25922 assessed as growth inhibition by measuring optical density measured at 1 time of MIC in presence of 1/2 times of MIC of norfloxacin by Checkerboard assay (reference value: 0.125); format: functional
[9] = tested on: Acinetobacter baumannii; experiment: Reduction of biofilm virulent factors in Acinetobacter baumannii assessed as decrease in extracellular polymeric substances (EPS) by measuring optical density at 490 nm at 1/4 times of MIC concentration by congo red binding assay (reference value: 0.188 to 0.192); format: functional
[10] = tested on: Pseudomonas aeruginosa; experiment: Anti-bacterial activity against Pseudomonas aeruginosa ATCC 9027 assessed as inhibition of bacterial growth; format: functional
[11] = tested on: Escherichia coli; experiment: Anti-bacterial activity against Escherichia coli ATCC 25922 assessed at fractional inhibitory concentration index measured upto 9 hrs in presence of norfloxacin; format: functional
[12] = tested on: Escherichia coli; experiment: Reduction of biofilm virulent factors in Escherichia coli ATCC 25922 assessed as decrease in extracellular polymeric substances (EPS) by measuring optical density at 490 nm at 2 times of MIC concentration by congo red binding assay (reference value: 0.028 to 0.031); format: functional
[13] = tested on: Acinetobacter baumannii; experiment: Anti-bacterial activity against Acinetobacter baumannii assessed as growth inhibition by measuring optical density measured at 2 time of MIC in presence of 1/4 times of MIC of norfloxacin by Checkerboard assay (reference value: 0.155); format: functional
[14] = tested on: Escherichia coli; experiment: Reduction of biofilm virulent factors in Escherichia coli ATCC 25922 assessed as decrease in extracellular polymeric substances (EPS) at 1/2 times of MIC concentration by congo red binding assay relative to control; format: functional; parameters: scale not given: the % may be the effect or the level left
[15] = tested on: Escherichia coli; experiment: Anti-bacterial activity against Escherichia coli ATCC 25922 assessed as growth inhibition by measuring optical density measured at 4 time of MIC in presence of 1 times of MIC of norfloxacin by Checkerboard assay (reference value: 0.125); format: functional
[16] = tested on: Acinetobacter baumannii; experiment: Reduction of biofilm virulent factors in Acinetobacter baumannii assessed as decrease in extracellular polymeric substances (EPS) by measuring optical density at 490 nm at 4 times of MIC concentration by congo red binding assay (reference value: 0.188 to 0.192); format: functional
[17] = tested on: Staphylococcus aureus; experiment: Anti-bacterial activity against Staphylococcus aureus ATCC 29213 assessed as inhibition of bacterial growth; format: functional; conditions: Staphylococcus aureus, ATCC 29213; read-out: MIC
[18] = tested on: Escherichia coli; experiment: Anti-bacterial activity against Escherichia coli ATCC 25922 assessed as growth inhibition by measuring optical density measured at 2 time of MIC in presence of 1/2 times of MIC of norfloxacin by Checkerboard assay (reference value: 0.128); format: functional
[19] = tested on: Escherichia coli; experiment: Induction of ROS accumulation in Escherichia coli ATCC 25922 assessed as decrease in GSH activity by measuring reduced GSH to convert to oxidized GSSG at 1/4 to 2 times of MIC by Ellmans metho; format: functional, organism-based
[20] = tested on: Escherichia coli; experiment: Antibiofilm activity against Escherichia coli ATCC 25922 assessed as clearance rate of mature biofilm at MIC concentration relative to control; format: functional
[21] = tested on: Cell membrane; experiment: Induction of physical destruction of cell membrane in Acinetobacter baumannii assessed as leakage of protein at 1/4 to 8 times of MIC concentration by Coomassie blue quantitative assay; format: cell membranes
[22] = tested on: Escherichia coli; experiment: Induction of intracellular ROS accumulation in Escherichia coli ATCC 25922 assessed as larger green fluorescence densities at 1/4 to 2 times of MIC by microscopic imaging assay; format: functional, organism-based
[23] = tested on: Acinetobacter baumannii; experiment: Reduction of biofilm virulent factors in Acinetobacter baumannii assessed as decrease in extracellular polymeric substances (EPS) at 2 times of MIC concentration by congo red binding assay relative to control; format: functional; parameters: scale not given: the % may be the effect or the level left
[24] = tested on: Acinetobacter baumannii; experiment: Reduction in metabolic activity of Acinetobacter baumannii assessed as biomass of the fluorescent pink change to non-fluorescent blue; format: functional, organism-based
[25] = tested on: Escherichia coli; experiment: Anti-bacterial activity against Escherichia coli ATCC 25922 assessed as growth inhibition by measuring optical density measured at 4 time of MIC in presence of 1/8 times of MIC of norfloxacin by Checkerboard assay (reference value: 0.125); format: functional
[26] = tested on: Candida albicans; experiment: Anti-fungal activity against Candida albicans assessed as inhibition of fungal growth; format: functional; conditions: Candida albicans; read-out: MIC
[27] = tested on: Acinetobacter baumannii; experiment: Antibiofilm activity against Acinetobacter baumannii assessed as clearance rate of mature biofilm at 8 times of MIC concentration relative to control; format: functional
[28] = tested on: Escherichia coli; experiment: Reduction in metabolic activity of Escherichia coli ATCC 25922 assessed as decrease in bacterial lactate dehydrogenase activity at 0.5 to 8 times of MIC concentration; format: functional, organism-based
[29] = tested on: Acinetobacter baumannii; experiment: Induction of membrane disturbance in Acinetobacter baumannii assessed as increase in fluorescence intensity at 0.5 to 8 times of MIC concentration measured after 90 mins by Propidium iodide assay; format: functional, organism-based
[30] = tested on: Escherichia coli; experiment: Reduction of biofilm virulent factors in Escherichia coli ATCC 25922 assessed as decrease in hydrophobicity index; format: functional, organism-based
[31] = tested on: Acinetobacter baumannii; experiment: Anti-bacterial activity against Acinetobacter baumannii assessed as growth inhibition by measuring optical density measured at 1/2 time of MIC in presence of 1/2 times of MIC of norfloxacin by Checkerboard assay (reference value: 0.152); format: functional
[32] = tested on: Acinetobacter baumannii; experiment: Reduction in metabolic activity of Acinetobacter baumannii assessed as decrease in fluorescence intensity at 1/4 to 8 times of MIC measured after 6 hrs by resazurin sodium salt assay; format: functional, organism-based
[33] = tested on: Escherichia coli; experiment: Reduction of biofilm virulent factors in Escherichia coli ATCC 25922 assessed as decrease in extracellular polymeric substances (EPS) at 4 times of MIC concentration by congo red binding assay relative to control; format: functional; parameters: scale not given: the % may be the effect or the level left
[34] = tested on: Staphylococcus aureus; experiment: Anti-bacterial activity against Staphylococcus aureus CMCC (B) 26001 assessed as inhibition of bacterial growth; format: functional

Q: CCCCc1nc(Cl)c(C2NC(=O)NC(CN3CCN(C(=O)/C(=N/OC)c4csc(N)n4)CC3)=C2C(=O)OCC)[nH]1 (centres undefined) was tested. Which MIC [1] did it give?
A: Its MIC is 26 µM (≈ 15.8 µg/mL).

Q: What about the OD [2] of the same compound?
A: The OD was 0.13.

Q: And the OD [3]?
A: The OD was 0.106.

Q: What about the MIC [4] of the same compound?
A: Its MIC is 422 µM (≈ 257 µg/mL).

Q: What about the Activity [5] of the same compound?
A: The Activity was 63.6%.

Q: And the FIC [6]?
A: Its FIC is 0.5.

Q: What about the OD [7] of the same compound?
A: Its OD is 0.05.

Q: And the OD [8]?
A: The OD was 0.096.

Q: And the OD [9]?
A: The OD was 0.178.

Q: What about the MIC [10] of the same compound?
A: The MIC was 26 µM (≈ 15.8 µg/mL).

Q: What about the “fractional inhibitory concentration index (FICI)” value [11] of the same compound?
A: Its value is 0.75.

Q: And the OD [12]?
A: The OD was 0.068.

Q: And the OD [13]?
A: The OD was 0.107.

Q: What about the Activity [14] of the same compound?
A: Its Activity is 64.4%.

Q: What about the OD [15] of the same compound?
A: The OD was 0.051.

Q: What about the OD [16] of the same compound?
A: The OD was 0.097.

Q: And the MIC [17]?
A: Its MIC is 26 µM (≈ 15.8 µg/mL).

Q: And the OD [18]?
A: The OD was 0.057.

Q: What about the Activity [19] of the same compound?
A: Its Activity is “Active”.

Q: And the Activity [20]?
A: The Activity was 37.7%.

Q: And the Activity [21]?
A: Its Activity is “Active”.

Q: And the Activity [22]?
A: The Activity was “Active”.

Q: And the Activity [23]?
A: The Activity was 70.2%.

Q: What about the Activity [24] of the same compound?
A: The Activity was “Active”.

Q: What about the OD [25] of the same compound?
A: The OD was 0.108.

Q: What about the MIC [26] of the same compound?
A: The MIC was 422 µM (≈ 257 µg/mL).

Q: What about the Activity [27] of the same compound?
A: The Activity was 42.6%.

Q: What about the Activity [28] of the same compound?
A: Its Activity is “Active”.

Q: What about the Activity [29] of the same compound?
A: Its Activity is “Active”.

Q: What about the Activity [30] of the same compound?
A: The Activity was “Active”.

Q: What about the OD [31] of the same compound?
A: The OD was 0.107.

Q: What about the Activity [32] of the same compound?
A: The Activity was “Active”.

Q: What about the Activity [33] of the same compound?
A: Its Activity is 52.3%.

Q: What about the MIC [34] of the same compound?
A: Its MIC is 26 µM (≈ 15.8 µg/mL).
